# Measurements published in patent US9216999B2, “Substituted pyrrolo[2,3-h][1,6]naphthyridines and compositions thereof as JAK inhibitors” (priority 2011, dated 2015).
# Assays:
# Format in all cases: biochemical
# Details in all cases: ATP 100 μM
# [1] = target: JAK2 (Homo sapiens (Human), UniProt O60674); assay: Enzyme assay (Assay Example^a 1), JAK2
# [2] = target: JAK1 (Homo sapiens (Human), UniProt P23458); assay: Enzyme assay (Assay Example^a 1), JAK1
# [3] = target: JAK3 (Homo sapiens (Human), UniProt P52333); assay: Enzyme assay (Assay Example^a 1), JAK3
# [4] = target: Tyk2 (Homo sapiens (Human), UniProt P29597); assay: Enzyme assay (Assay Example^a 1), Tyk2
# Sequence of Tyk2 (P29597 whole entry): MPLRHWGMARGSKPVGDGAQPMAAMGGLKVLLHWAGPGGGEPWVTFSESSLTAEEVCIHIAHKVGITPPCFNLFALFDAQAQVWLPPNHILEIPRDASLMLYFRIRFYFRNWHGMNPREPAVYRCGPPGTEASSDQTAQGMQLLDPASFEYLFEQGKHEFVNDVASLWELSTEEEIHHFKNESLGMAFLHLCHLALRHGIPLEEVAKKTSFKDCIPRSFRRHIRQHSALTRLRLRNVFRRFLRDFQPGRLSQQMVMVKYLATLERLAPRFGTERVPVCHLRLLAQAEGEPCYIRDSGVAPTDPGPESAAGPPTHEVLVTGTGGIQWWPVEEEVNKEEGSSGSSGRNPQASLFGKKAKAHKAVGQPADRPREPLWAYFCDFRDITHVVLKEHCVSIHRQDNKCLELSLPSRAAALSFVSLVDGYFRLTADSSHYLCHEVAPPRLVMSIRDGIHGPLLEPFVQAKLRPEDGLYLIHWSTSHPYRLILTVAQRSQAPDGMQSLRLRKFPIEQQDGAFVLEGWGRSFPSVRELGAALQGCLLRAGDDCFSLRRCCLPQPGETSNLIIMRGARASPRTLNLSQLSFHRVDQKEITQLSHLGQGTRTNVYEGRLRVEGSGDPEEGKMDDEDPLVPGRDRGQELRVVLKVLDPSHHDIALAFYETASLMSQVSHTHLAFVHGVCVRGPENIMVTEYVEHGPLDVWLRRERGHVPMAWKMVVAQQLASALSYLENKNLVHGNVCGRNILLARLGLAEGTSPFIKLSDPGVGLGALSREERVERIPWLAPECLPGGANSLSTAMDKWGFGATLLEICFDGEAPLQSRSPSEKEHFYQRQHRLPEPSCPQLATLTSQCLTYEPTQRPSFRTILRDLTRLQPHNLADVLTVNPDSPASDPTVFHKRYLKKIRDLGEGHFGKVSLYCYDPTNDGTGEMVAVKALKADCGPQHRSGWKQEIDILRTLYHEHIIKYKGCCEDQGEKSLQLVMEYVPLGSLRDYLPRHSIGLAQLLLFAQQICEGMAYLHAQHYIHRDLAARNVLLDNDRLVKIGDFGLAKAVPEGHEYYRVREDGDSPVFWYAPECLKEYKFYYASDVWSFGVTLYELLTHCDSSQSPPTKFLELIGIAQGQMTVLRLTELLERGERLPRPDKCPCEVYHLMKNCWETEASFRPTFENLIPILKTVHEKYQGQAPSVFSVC
# Sequence of JAK3 (P52333 whole entry): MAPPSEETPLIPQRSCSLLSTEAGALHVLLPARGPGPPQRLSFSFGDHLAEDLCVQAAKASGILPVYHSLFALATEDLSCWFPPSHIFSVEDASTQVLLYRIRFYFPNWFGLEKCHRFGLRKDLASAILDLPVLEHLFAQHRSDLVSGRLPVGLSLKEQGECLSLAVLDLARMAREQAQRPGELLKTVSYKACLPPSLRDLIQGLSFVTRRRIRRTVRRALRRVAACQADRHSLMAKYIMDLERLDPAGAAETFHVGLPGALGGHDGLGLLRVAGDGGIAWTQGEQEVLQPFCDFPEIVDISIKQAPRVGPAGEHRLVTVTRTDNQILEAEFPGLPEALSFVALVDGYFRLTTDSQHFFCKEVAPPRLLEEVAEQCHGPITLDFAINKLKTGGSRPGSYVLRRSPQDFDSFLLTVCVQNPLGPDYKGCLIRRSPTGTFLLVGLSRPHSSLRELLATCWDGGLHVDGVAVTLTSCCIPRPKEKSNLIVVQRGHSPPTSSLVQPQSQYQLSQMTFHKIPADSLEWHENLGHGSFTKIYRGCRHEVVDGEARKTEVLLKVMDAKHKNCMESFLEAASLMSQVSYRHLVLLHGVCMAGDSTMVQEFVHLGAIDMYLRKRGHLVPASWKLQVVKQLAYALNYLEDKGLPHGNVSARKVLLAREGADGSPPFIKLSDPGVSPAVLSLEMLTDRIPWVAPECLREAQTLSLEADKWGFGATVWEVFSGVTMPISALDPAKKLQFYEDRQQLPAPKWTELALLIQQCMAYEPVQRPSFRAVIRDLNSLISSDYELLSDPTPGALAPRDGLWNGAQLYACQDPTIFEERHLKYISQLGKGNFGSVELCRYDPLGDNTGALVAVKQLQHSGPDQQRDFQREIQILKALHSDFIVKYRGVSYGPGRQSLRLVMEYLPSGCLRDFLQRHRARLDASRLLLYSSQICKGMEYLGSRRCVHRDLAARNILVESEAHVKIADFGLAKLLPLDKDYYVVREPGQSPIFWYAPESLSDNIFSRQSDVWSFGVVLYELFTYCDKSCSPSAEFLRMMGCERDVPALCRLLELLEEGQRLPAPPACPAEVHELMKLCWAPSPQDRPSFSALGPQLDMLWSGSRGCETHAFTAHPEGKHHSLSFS
IC50 [1] [µM],IC50 [2] [µM],IC50 [3] [µM],IC50 [4] [µM],SMILES,IC50 ([1]; Table^a 154) [µM],IC50 ([2]; Table^a 154) [µM],IC50 ([3]; Table^a 154) [µM],IC50 ([4]; Table^a 154) [µM]
–,–,–,–,N#Cc1ccc(CN[C@H]2CC[C@@H](c3nnn4cnc5[nH]ccc5c34)CC2)cc1 [137a],0.49,0.032,> 1,0.31
–,–,–,–,N#Cc1ccc(CN[C@H]2CC[C@H](c3nnn4cnc5[nH]ccc5c34)CC2)cc1 [137b],0.039,0.0041,0.38,0.088
0.0044,0.0016,0.17,0.1,"Clc1ccc(CN2CCC(c3nnn4cnc5[nH]ccc5c34)CC2)o1 [compound 228, 1-{1-[(5-chlorofuran-2-yl)methyl]piperidin-4-yl}-7H-pyrrolo[3,2-e][1,2,3]triazolo[1,5-c]pyrimidine]",–,–,–,–
0.013,0.0026,0.04,0.29,"Clc1ccc(CN2CCC(c3nnn4cnc5[nH]ccc5c34)CC2)cn1 [compound 214, 1-{1-[(6-chloropyridin-3-yl)methyl]piperidin-4-yl}-7H-pyrrolo[3,2-e][1,2,3]triazolo[1,5-c]pyrimidine]",–,–,–,–
0.0061,0.0035,0.069,0.27,"N#CCNS(=O)(=O)C[C@H]1CC[C@H](c2nnn3cnc4[nH]ccc4c23)CC1 [compound 419, 1-[trans-4-(7H-pyrrolo[3,2-e][1,2,3]triazolo[1,5-c]pyrimidin-1-yl)cyclohexyl]-N-(cyanomethyl)methanesulfonamide]",–,–,–,–
0.19,0.022,> 1,0.71,"c1cc2c(ncn3nnc([C@H]4CC[C@H](NCC5CC5)CC4)c23)[nH]1 [396b, trans-N-(cyclopropylmethyl)-4-(7H-pyrrolo[3,2-e][1,2,3]triazolo[1,5-c]pyrimidin-1-yl)cyclohexanamine]",–,–,–,–
–,–,–,–,"Fc1ccc(CN2CCC(c3nnn4cnc5[nH]ccc5c34)CC2)nc1 [compound 162, 1-{1-[(5-fluoropyridin-2-yl)methyl]piperidin-4-yl}-7H-pyrrolo[3,2-e][1,2,3]triazolo[1,5-c]pyrimidine]",0.2,0.032,0.68,> 1
0.015,0.0025,0.24,0.14,"FC(F)CNC[C@H]1CC[C@H](c2nnn3cnc4[nH]ccc4c23)CC1 [compound 255, N-{[trans-4-(7H-pyrrolo[3,2-e][1,2,3]triazolo[1,5-c]pyrimidin-1-yl)cyclohexyl]methyl}-2,2-difluoroethanamine]",–,–,–,–
–,–,–,–,c1csc(CN2CCC(c3nnn4cnc5[nH]ccc5c34)CC2)n1 [compound 48],0.054,0.022,0.44,0.46

SMILES,IC50 [1] [µM],IC50 [2] [µM],IC50 [3] [µM],IC50 [4] [µM],IC50 ([1]; Table^a 154) [µM],IC50 ([2]; Table^a 154) [µM],IC50 ([3]; Table^a 154) [µM],IC50 ([4]; Table^a 154) [µM]
"N#CCCN1CCN(C[C@H]2CC[C@H](c3nnn4cnc5[nH]ccc5c34)CC2)CC1 [compound 314, 3-(4-{[trans-4-(7H-pyrrolo[3,2-e][1,2,3]triazolo[1,5-c]pyrimidin-1-yl)cyclohexyl]methyl}piperazin-1-yl)propanenitrile]",0.19,0.008,> 1,0.75,–,–,–,–
"N#Cc1cc(NC[C@H]2CC[C@H](c3nnn4cnc5[nH]ccc5c34)CC2)ccc1F [compound 252, 5-({[trans-4-(7H-pyrrolo[3,2-e][1,2,3]triazolo[1,5-c]pyrimidin-1-yl)cyclohexyl]methyl}amino)-2-fluorobenzonitrile]",0.06,0.017,> 1,> 1,–,–,–,–
"NC(=O)C1CCN(C[C@H]2CC[C@H](c3nnn4cnc5[nH]ccc5c34)CC2)CC1 [compound 261, 1-{[trans-4-(7H-pyrrolo[3,2-e][1,2,3]triazolo[1,5-c]pyrimidin-1-yl)cyclohexyl]methyl}piperidine-4-carboxamide]",0.091,0.023,> 1,0.64,–,–,–,–
